What all share (test): MTT cell proliferation assay
What all share (format): cell-based

One assay deals with MM1S cells. To be noted: Homo sapiens, MM1.S, approximately 64-72 hours. The procedure:
(§1) The MTT cell proliferation assay was used to study the cytotoxic properties of the compounds. The assay was performed according to the method described by Roche Molecular Biochemicals, with minor modifications. The assay is based on the cleavage of the tetrazolium salt, MTT, in the presence of an electron-coupling reagent. The water-insoluble formazan salt produced must be solubilized in an additional step. Cells grown in a 96-well tissue culture plate were incubated with the MTT solution for approximately 4 hours. After this incubation period, a water-insoluble formazan dye formed. After solubilization, the formazan dye was quantitated using a scanning multi-well spectrophotometer (ELISA reader). […] The cells were seeded at 5,000-10,000 cells in each well of 96-well plate in 100 μL of fresh culture medium and were allowed to attach overnight. The stock solutions of the compounds were diluted in 100 μL cell culture medium to obtain eight concentrations of each test compound, ranging from 1 nM to 30 μM. […] All optical densities were measured at 490 nm using a Vmax Kinetic Microplate Reader (Molecular Devices). In most cases, the assay was performed in duplicate and the results were presented as a mean percent inhibition to the negative control±SE. The following formula was used to calculate the percent of inhibition: Inhibition (%)=(1−(ODo/OD))×100.
(§2) The compounds were tested against Z138, MM1S and 3T3 cells. The Z138 cell line is a mature B-cell acute lymphoblastic leukemia cell line derived from a patient with chronic lumphocytic leukemia. The MM1S cell line was established from the peripheral blood of a human multiple myeloma patient. 3T3 cells are standard fibroblast cells; they were originally isolated from Swiss mouse embryo tissue.

A further assay has as its system 3T3 cells. To be noted: Mus musculus, NIH3T3, approximately 64-72 hours. The procedure: as §1, §2
A further assay concerns Z138 cells. The conditions noted are these: Homo sapiens, Z-138, approximately 64-72 hours. The protocol: as §1, §2

Our source for the IC50 values is patent publication US11945794B2, “Nuclear transport modulators and uses thereof” (Karyopharm Therapeutics Inc., priority 2013, dated 2024).

Regarding `CN(C)C(=O)/C(=C/n1cnc(-c2cc(C(F)(F)F)cc(C(F)(F)F)c2)n1)c1cccnc1` [Compound 112, (E)-3-(3-(3,5-bis(trifluoromethyl)phenyl)-1H-1,2,4-triazol-1-yl)-N,N-dimethyl-2-(pyridin-3-yl)acrylamide], the IC50 in the assay with MM1S cells was > 30 µM.

Consider `NC(=O)/C(=C/n1cnc(-c2cc(C(F)(F)F)cc(C(F)(F)F)c2)n1)c1cccnc1Cl` [Compound 144, (E)-3-(3-(3,5-bis(trifluoromethyl)phenyl)-1H-1,2,4-triazol-1-yl)-2-(2-chloropyridin-3-yl)acrylamide], for which the IC50 is > 30 µM in the assay on 3T3 cells, 0.1 to 5 µM with MM1S cells and 0.1 to 5 µM in the assay on Z138 cells.

Regarding `O=C(O)/C(=C/n1cnc(-c2cc(C(F)(F)F)cc(C(F)(F)F)c2)n1)c1cncc(F)c1` [Compound 125, (E)-3-(3-(3,5-bis(trifluoromethyl)phenyl)-1H-1,2,4-triazol-1-yl)-2-(5-fluoropyridin-3-yl)acrylic acid], in the assay with MM1S cells, the half-maximal inhibitory concentration (IC50) was > 30 µM.

With `NC(=O)/C(=C/n1cnc(-c2cc(C(F)(F)F)cc(C(F)(F)F)c2)n1)c1ccc(-c2ccccc2)c(F)c1` [Compound 150, (E)-3-(3-(3,5-bis(trifluoromethyl)phenyl)-1H-1,2,4-triazol-1-yl)-2-(2-fluorobiphenyl-4-yl)acrylamide], the IC50 with 3T3 cells was > 30 µM; in the assay on MM1S cells, 5 to 30 µM; in the assay on Z138 cells, 5 to 30 µM.

In the assay on MM1S cells, `CC(C)OC(=O)/C(=C/n1cnc(-c2cc(C(F)(F)F)cc(C(F)(F)F)c2)n1)c1ccncc1` [Compound 106, isopropyl (E)-3-(3-(3,5-bis(trifluoromethyl)phenyl)-1H-1,2,4-triazol-1-yl)-2-(pyridin-4-yl)acrylate] had an IC50 of 0.1 to 5 µM.

As for `NC(=O)/C(=C/n1cnc(-c2cc(C(F)(F)F)cc(C(F)(F)F)c2)n1)c1ccnnc1` [Compound 133, (E)-3-(3-(3,5-bis(trifluoromethyl)phenyl)-1H-1,2,4-triazol-1-yl)-2-(pyridazin-4-yl)acrylamide], the half-inhibitory concentration (IC50) was 5 to 30 µM in the assay with 3T3 cells, < 0.1 µM with MM1S cells and < 0.1 µM in the assay on Z138 cells.

As to `NC(=O)/C(=C/n1cnc(-c2cc(C(F)(F)F)cc(C(F)(F)F)c2)n1)c1ccccc1` [Compound 146, (E)-3-(3-(3,5-bis(trifluoromethyl)phenyl)-1H-1,2,4-triazol-1-yl)-2-phenylacrylamide], the IC50 with 3T3 cells was > 30 µM; in the assay with MM1S cells, 0.1 to 5 µM; in the assay on Z138 cells, 0.1 to 5 µM.

Take `O=C(O)/C(=C/n1cnc(-c2cc(C(F)(F)F)cc(C(F)(F)F)c2)n1)c1cncnc1` [Compound 123, (E)-3-(3-(3,5-bis(trifluoromethyl)phenyl)-1H-1,2,4-triazol-1-yl)-2-(pyrimidin-5-yl) acrylic acid]: in the assay with MM1S cells, the IC50 was > 30 µM.

Take `COc1ccc(/C(=C\n2cnc(-c3cc(C(F)(F)F)cc(C(F)(F)F)c3)n2)C(=O)O)cn1` [Compound 121, (E)-3-(3-(3,5-bis(trifluoromethyl)phenyl)-1H-1,2,4-triazol-1-yl)-2-(6-methoxypyridin-3-yl) acrylic acid]: the IC50 with MM1S cells was > 30 µM.

As for `NC(=O)/C(=C\n1cnc(-c2cc(C(F)(F)F)cc(C(F)(F)F)c2)n1)c1ccc(F)nc1` [Compound 154, (Z)-3-(3-(3,5-bis(trifluoromethyl)phenyl)-1H-1,2,4-triazol-1-yl)-2-(6-fluoropyridin-3-yl)acrylamide], the IC50 in the assay on MM1S cells is 0.1 to 5 µM.

Turning to `Cc1noc(C)c1/C(=C\n1cnc(-c2cc(C(F)(F)F)cc(C(F)(F)F)c2)n1)C(=O)O` [Compound 117, (E)-3-(3-(3,5-bis(trifluoromethyl)phenyl)-1H-1,2,4-triazol-1-yl)-2-(3,5-dimethylisoxazol-4-yl) acrylic acid], in the assay on MM1S cells, the IC50 is > 30 µM.

Compound `NC(=O)/C(=C/n1cnc(-c2cc(C(F)(F)F)cc(C(F)(F)F)c2)n1)c1ccoc1` [Compound 129, (E)-3-(3-(3,5-bis(trifluoromethyl)phenyl)-1H-1,2,4-triazol-1-yl)-2-(furan-3-yl) acrylamide] registered an IC50 with MM1S cells of 0.1 to 5 µM.

Consider `NC(=O)/C(=C/n1cnc(-c2cc(C(F)(F)F)cc(C(F)(F)F)c2)n1)c1cccnc1F` [Compound 135, (E)-3-(3-(3,5-bis(trifluoromethyl)phenyl)-1H-1,2,4-triazol-1-yl)-2-(2-fluoropyridin-3-yl)acrylamide], for which the values for the IC50 with 3T3 cells, in the assay on MM1S cells and in the assay on Z138 cells were > 30 µM, < 0.1 µM and 0.1 to 5 µM, respectively.

The compound `O=C(O)/C(=C/n1cnc(-c2cc(C(F)(F)F)cc(C(F)(F)F)c2)n1)c1ccncc1` [Compound 107, (E)-3-(3-(3,5-bis(trifluoromethyl)phenyl)-1H-1,2,4-triazol-1-yl)-2-(pyridin-4-yl)acrylic acid] yielded an IC50 in the assay on MM1S cells of 5 to 30 µM.

Consider `O=C(O)/C(=C/n1cnc(-c2cc(C(F)(F)F)cc(C(F)(F)F)c2)n1)c1cccnc1` [Compound 103, (E)-3-(3-(3,5-bis(trifluoromethyl)phenyl)-1H-1,2,4-triazol-1-yl)-2-(pyridin-3-yl)acrylic acid], for which the IC50 in the assay on 3T3 cells, in the assay with MM1S cells and in the assay on Z138 cells was > 30 µM in each case.

`CC(C)OC(=O)/C(=C/n1cnc(-c2cc(C(F)(F)F)cc(C(F)(F)F)c2)n1)c1nccs1` [Compound 109, isopropyl (Z)-3-(3-(3,5-bis(trifluoromethyl)phenyl)-1H-1,2,4-triazol-1-yl)-2-(thiazol-2-yl)acrylate]: in the assay with MM1S cells, the half-maximal inhibitory concentration (IC50) was 0.1 to 5 µM.

On to `COc1ccc(/C(=C\n2cnc(-c3cc(C(F)(F)F)cc(C(F)(F)F)c3)n2)C(N)=O)cn1` [Compound 127, (E)-3-(3-(3,5-bis-(trifluoromethyl)-phenyl)-1H-1,2,4-triazol-1-yl)-2-(6-methoxypyridin-3-yl)acrylamide], for which, in the assay on MM1S cells, the IC50 was in the range of 0.1 to 5 µM.

For `NC(=O)/C(=C/n1cnc(-c2cc(C(F)(F)F)cc(C(F)(F)F)c2)n1)c1ccc(F)nc1` [Compound 139, (E)-3-(3-(3,5-bis(trifluoromethyl)phenyl)-1H-1,2,4-triazol-1-yl)-2-(6-fluoropyridin-3-yl)acrylamide], the IC50 in the assay on 3T3 cells was > 30 µM; in the assay with MM1S cells it was 0.1 to 5 µM; in the assay on Z138 cells, 0.1 to 5 µM.

Take `NC(=O)/C(=C\n1cnc(-c2cc(C(F)(F)F)cc(C(F)(F)F)c2)n1)c1cncnc1` [Compound 153, (Z)-3-(3-(3,5-bis(trifluoromethyl)phenyl)-1H-1,2,4-triazol-1-yl)-2-(pyrimidin-5-yl)acrylamide]: the IC50 in the assay on 3T3 cells is > 30 µM; in the assay with MM1S cells, < 0.1 µM; in the assay on Z138 cells, 0.1 to 5 µM.

On to `O=C(O)/C(=C/n1cnc(-c2cc(C(F)(F)F)cc(C(F)(F)F)c2)n1)c1ccoc1` [Compound 128, (E)-3-(3-(3,5-bis(trifluoromethyl)phenyl)-1H-1,2,4-triazol-1-yl)-2-(furan-3-yl) acrylic acid], for which the half-inhibitory concentration (IC50) in the assay with MM1S cells is > 30 µM.

For `NC(=O)/C(=C/n1cnc(-c2cc(C(F)(F)F)cc(C(F)(F)F)c2)n1)c1ccc(-c2cccnc2)cc1` [Compound 151, (E)-3-(3-(3,5-bis(trifluoromethyl)phenyl)-1H-1,2,4-triazol-1-yl)-2-(4-(pyridin-3-yl)phenyl)acrylamide], the 50% inhibitory concentration (IC50) in the assay with 3T3 cells is > 30 µM; with MM1S cells it was 0.1 to 5 µM; in the assay with Z138 cells it was 5 to 30 µM.

In the case of `NC(=O)/C(=C\n1cnc(-c2cc(C(F)(F)F)cc(C(F)(F)F)c2)n1)c1cccnc1F` [Compound 157, (Z)-3-(3-(3,5-bis(trifluoromethyl)phenyl)-1H-1,2,4-triazol-1-yl)-2-(2-fluoropyridin-3-yl)acrylamide], the half-inhibitory concentration (IC50) in the assay with 3T3 cells, with MM1S cells and with Z138 cells was 0.1 to 5 µM each time.

On to `N#C/C(=C/n1cnc(-c2cc(C(F)(F)F)cc(C(F)(F)F)c2)n1)c1nccs1` [Compound 110, (Z)-3-(3-(3,5-bis(trifluoromethyl)phenyl)-1H-1,2,4-triazol-1-yl)-2-(thiazol-2-yl)acrylonitrile], for which, in the assay with MM1S cells, the IC50 fell in the range of 0.1 to 5 µM.

For the compound `NC(=O)/C(=C/n1cnc(-c2cc(C(F)(F)F)cc(C(F)(F)F)c2)n1)c1ccc2cn[nH]c2c1` [Compound 152, (E)-3-(3-(3,5-bis(trifluoromethyl)phenyl)-1H-1,2,4-triazol-1-yl)-2-(1H-indazol-6-yl)acrylamide], the IC50 with 3T3 cells was > 30 µM; in the assay with MM1S cells it was 0.1 to 5 µM; with Z138 cells, 0.1 to 5 µM.

As for `Cn1cc(/C(=C\n2cnc(-c3cc(C(F)(F)F)cc(C(F)(F)F)c3)n2)C(=O)O)cn1` [Compound 131, (E)-3-(3-(3,5-bis(trifluoromethyl)phenyl)-1H-1,2,4-triazol-1-yl)-2-(1-methyl-1H-pyrazol-4-yl)acrylic acid], in the assay with MM1S cells, the IC50 lay in the range of 0.1 to 5 µM.

`CC(C)OC(=O)/C(=C/n1cnc(-c2cc(C(F)(F)F)cc(C(F)(F)F)c2)n1)c1ccoc1` [Compound 122, isopropyl (E)-3-(3-(3,5-bis (trifluoromethyl)phenyl)-1H-1,2,4-triazol-1-yl)-2-(furan-3-yl) acrylate] returned a 50% inhibitory concentration (IC50) in the assay with MM1S cells of 0.1 to 5 µM.

As a reminder, the IC50 is the midpoint of a concentration-inhibition curve.
